According to patent US8809280B2, “Therapeutic peptides” (Lytix Biopharma AS, priority 2009, dated 2014):
Converted amounts (≈) assume the structure as drawn. Like-named read-outs stand apart in the source and are kept apart here.

What was measured:
Type in all cases: cell-based
[1] = test system: Staphylococcus aureus (ATTC 25923); assay: microbe, parasite or virus in culture
Protocol: (§1) The antimicrobial testing was conducted by TosLab A/S (Tromsø, Norway). Each compound was diluted to 1 mg/ml in water and tested in duplicates at 200, 100, 50, 35, 15, 10, 5, 2.5, 1, 0.5 μg/ml except 4n which was tested at 50, 35, 15, 10, 5, 2.5, 1, 0.5 μg/ml due to solubility problems. All tested compounds were di TFA salts.
(§2) The bacterial strains were grown in 2% Bacto Peptone water until exponential growth was achieved. […] A bacterial concentration of 2×10^6 cfu/ml was used. Both negative control (no peptide) and positive control (Gentamicin) was used for all bacterial strains. Growth or no growth was judged by the turbidity of the wells.
Staphylococcus aureus (ATTC 25923)
(§3) Antimicrobial assays: 200 μg/ml
(§4) Suitable methodologies are described in Example 1.
(§5) Each compound was tested in duplicates at 200, 100, 50, 35, 15, 10, 5, 2.5, 1, 0.5 μg/ml. All tested compounds were di-trifluoroacetic acid salts.

[2] = test system: methicillin resistant Staphylococcus aureus (ATCC 33591); assay: microbe, parasite or virus in culture
Protocol: as §1, §2
Methicillin resistant Staphylococcus aureus (ATCC 33591)
as §3, §4, §5

[3] = test system: methicillin resistant Staphylococcus epidermidis (ATCC 27626); assay: microbe, parasite or virus in culture
Protocol: as §1, §2
Methicillin resistant Staphylococcus epidermidis (ATCC 27626)
as §3, §4, §5

[4] = test system: Escherichia coli (ATTC 25922); assay: microbe, parasite or virus in culture; conditions: for MIC E. coli: Example 1, di TFA salts, highest concentration tested 200 μg/ml
Protocol: as §1, §2
Escherichia coli (ATTC 25922)
as §3, §4, §5

human red blood cells = assay: cells
Protocol: The hemolytic testing against human erythrocytes was conducted by Lytix Biopharma A/S (Tromso, Norway). Each compound was tested from a concentration of 1 mg/ml and lower, except 4k and 4n which was only tested up to 0.5 mg/ml due to solubility problems. 8 mL of blood was collected from adult healthy male donors. The blood was divided equally and distributed in a commercial available EDTA containing test tube (BD vacutainer, 7.2 mg K2 EDTA) and in a 10 mL reaction vial containing 40 μL of a heparin solution (1000 U/mL in 0.9% sodium chloride). After 30 minutes the hematocrit of the EDTA treated blood was determined. The heparinized blood was centrifuged for 10 minutes at 1500 rpm and the supernatant removed. Subsequently the RBCs were washed with prewarmed PBS three times, and diluted to 10% hematocrit. The compounds dissolved in PBS (concentration 1 μg/mL to 1000 µg/mL) and the erythrocytes were incubated under agitation at 37° C. for one hour. A positive control with an end concentration of 0.1% TRITON X-100 (nonionic surfactant) and a negative control containing pure PBS buffer were included. The samples were centrifuged (4000 rpm) for 5 minutes and the absorption of the supernatant was measured at 405 nm. The values given in Table 1A correspond to 50% hemolysis.
The plasma fraction of heparinized human blood was first removed by centrifugation and three additional washing steps with 37° C. pre-warmed phosphate buffered saline (PBS). Subsequently, the human RBC were diluted to 10% hematocrit and the β^2,2-amino acid derivatives were dissolved in PBS providing concentrations ranging from 1-1000 μg/mL. The diluted RBC were added to the compound solutions to a final erythrocyte concentration of 1% v/v. PBS and TRITON X-100 (non-ionic surfactant), in a final concentration of 0.1% v/v, were included as negative and positive control. After 1 hour agitated incubation at 37° C. the samples were centrifuged at 4000 rpm for 5 min. Release of hemoglobin was determined by measuring the absorbance of the supernatant at 405 nm. Hemolytic activity was calculated as the ratio of treated sample with β^2,2-amino acid derivative and tenside treated sample according to the formula: […]

[5] = Staphylococcus aureus, Example 2, values separated by / are repeat tests, read-out: Antimicrobial potency (MIC) S. aureus
[6] = Staphylococcus aureus, ATCC 33591 / MRSA, Example 2, values separated by / are repeat tests, read-out: Antimicrobial potency (MIC) MRSA
[7] = Staphylococcus epidermidis, ATCC 27626 / MRSE, Example 2, values separated by / are repeat tests, read-out: Antimicrobial potency (MIC) MRSE
[8] = Escherichia coli, Example 2, values separated by / are repeat tests, read-out: Antimicrobial potency (MIC) E. coli
[9] = ATTC 25923, read-out: MIC S. aureus
[10] = ATCC 33591, read-out: MIC MTRSA
[11] = ATTC 25922, read-out: MIC E. coli
[12] = Example 1, 50% hemolysis of human red blood cells, highest concentration tested 1000 μg/ml
[13] = Homo sapiens, Erythrocyte, Example 2, highest concentration tested 1000 μg/ml, * low solubility in the test media, read-out: Toxicity RBC (EC50)

| SMILES | MIC [1, 5] [µg/mL] | MIC [2, 6] [µg/mL] | MIC [3, 7] [µg/mL] | MIC [4, 8] [µg/mL] | MBC S. aureus ([1]; ATTC 25923) [µM] | MIC [1, 9] [µM] | MBC MRSA ([2]; ATCC 33591) [µM] | MBC MRSE ([3]; ATCC 27626) [µM] | MIC ([3]; ATCC 27626, read-out: MIC MRSE) [µM] | MBC E. coli ([4]; ATTC 25922) [µM] | MIC [4, 11] [µM] | MIC E. coli ([4]; ATTC 25922) | EC50 RBC (human red blood cells; [12]) | MIC MRSA ([2]; ATCC 33591) [µM] | other results |
| --- | --- | --- | --- | --- | --- | --- | --- | --- | --- | --- | --- | --- | --- | --- | --- |
| CCCC(CN)(CCC)C(=O)NCCN [Compound 1, N-(2-aminoethyl)-2-(aminomethyl)-2-propyl-pentanamide] | > 200 | > 200 | > 200 | > 200 |  |  |  |  |  |  |  |  |  |  |  |
| CN(C)CCN1CCN(C(=O)C(CN)(CCCc2ccccc2)CCCc2ccccc2)CC1 [Compound 4a] |  |  |  |  | >360 | 289 | >360 | >360 | 72 | >360 | 289 | — (The notation “—”denotes no detectable activity (MIC or EC50) within the concentration range tested.) | — (The notation “—”denotes no detectable activity (MIC or EC50) within the concentration range tested.) |  | MIC S. aureus ([1]; Example 1, ATTC 25923, di TFA salts, highest concentration tested 200 μg/ml): — (The notation “—”denotes no detectable activity (MIC or EC50) within the concentration range tested.); MIC [2, 10]: 72 µM; MIC MRSA ([2]; Example 1, ATCC 33591, di TFA salts, highest concentration tested 200 μg/ml): — (The notation “—”denotes no detectable activity (MIC or EC50) within the concentration range tested.); MIC MRSE ([3]; Example 1, ATCC 27626, di TFA salts, highest concentration tested 200 μg/ml): — (The notation “—”denotes no detectable activity (MIC or EC50) within the concentration range tested.); EC50 RBC (human red blood cells; Example 4, hemolytic activity, human red blood cells, highest concentration tested 1000 μg/ml): — (The notation “—” denotes no detectable activity (MIC or EC50) within the concentration range tested.) |
| CN(C)CCN1CCN(C(=O)C(CN)(Cc2ccc(C(F)(F)F)cc2)Cc2ccc(C(F)(F)F)cc2)CC1 [Compound 4b] |  |  |  |  | 301 (≈ 164 µg/mL) |  | 150 (≈ 81.7 µg/mL) | 75 (≈ 40.8 µg/mL) |  | >301 | 129 | — (The notation “—”denotes no detectable activity (MIC or EC50) within the concentration range tested.) | — (The notation “—”denotes no detectable activity (MIC or EC50) within the concentration range tested.) | 150 (≈ 81.7 µg/mL) | Therapeutic index S. aureus ([1]; ATTC 25923): 25; Therapeutic index MRSA ([2]; ATCC 33591): 172; MIC [2, 10]: 6.5 µM; Therapeutic index MRSE ([3]; ATCC 27626): 17; Therapeutic index E. coli ([4]; ATTC 25922): 8.6; EC50 (human red blood cells; red cells of human): 1120 µM |
| N=C(N)NCCC[C@H](NC(=O)C(CN)(CCc1ccccc1)CCc1ccccc1)C(N)=O [Compound 4e] |  |  |  |  | 147 (≈ 66.5 µg/mL) | 147 | 147 (≈ 66.5 µg/mL) | 74 (≈ 33.5 µg/mL) | 74 | >294 |  | — (The notation “—”denotes no detectable activity (MIC or EC50) within the concentration range tested.) | — (The notation “—”denotes no detectable activity (MIC or EC50) within the concentration range tested.) | 147 (≈ 66.5 µg/mL) |  |
| N=C(N)NCCC[C@H](NC(=O)C(CN)(CCCc1ccccc1)CCCc1ccccc1)C(N)=O [Compound 4f] |  |  |  |  | 49 (≈ 23.6 µg/mL) | 49 | 49 (≈ 23.6 µg/mL) | 49 (≈ 23.6 µg/mL) | 35 | >282 |  | — (The notation “—”denotes no detectable activity (MIC or EC50) within the concentration range tested.) | — (The notation “—”denotes no detectable activity (MIC or EC50) within the concentration range tested.) | 49 (≈ 23.6 µg/mL) |  |
| CC(C)c1ccc(CC(CN)(Cc2ccc(C(C)C)cc2)C(=O)N[C@@H](CCCNC(=N)N)C(N)=O)cc1 [Compound 4j] |  |  |  |  | 6.8 (≈ 3.46 µg/mL) | 10.2 | 6.8 (≈ 3.46 µg/mL) | 6.8 (≈ 3.46 µg/mL) | 6.8 | 136 (≈ 69.2 µg/mL) | 136 |  |  | 6.8 (≈ 3.46 µg/mL) | EC50 (human red blood cells; red cells of human): 386 µM |
| Cc1cc(C)cc(CC(CN)(Cc2cc(C)cc(C)c2)C(=O)N[C@@H](CCCNC(=N)N)C(N)=O)c1 [Compound 4l] |  |  |  |  | 49 (≈ 23.6 µg/mL) | 60 | 49 (≈ 23.6 µg/mL) | 21 (≈ 10.1 µg/mL) | 35 | >282 |  | — (The notation “—”denotes no detectable activity (MIC or EC50) within the concentration range tested.) | — (The notation “—”denotes no detectable activity (MIC or EC50) within the concentration range tested.) | 49 (≈ 23.6 µg/mL) |  |
| CC(C)(C)c1cc(CC(CN)(Cc2cc(C(C)(C)C)cc(C(C)(C)C)c2)C(=O)N[C@@H](CCCNC(=N)N)C(N)=O)cc(C(C)(C)C)c1 [Compound 4n] |  |  |  |  | 4.6 (≈ 2.99 µg/mL) | 2.9 | 4.6 (≈ 2.99 µg/mL) | 3.4 (≈ 2.21 µg/mL) | 10.1 | 5.7 (≈ 3.7 µg/mL) | 5.7 |  |  | 2.1 (≈ 1.36 µg/mL) | EC50 (human red blood cells; red cells of human): 99 µM |
| CN(C)CCNC(=O)C(CN)(Cc1ccccc1)Cc1ccccc1 [Compound 23, 3-amino-2,2-dibenzyl-N-(2-(dimethylamino)-ethyl)-propanamide] | > 100 | > 100 | > 100 | > 100 |  |  |  |  |  |  |  |  |  |  | EC50 (human red blood cells; [13]): > 1000 µg/mL |
| CN(C)CCNC(=O)C(CN)(Cc1ccc(C(C)(C)C)cc1)Cc1ccc(C(C)(C)C)cc1 [Compound 24, 3-amino-2,2-bis(4-tert-butylbenzyl)-N-(2-(dimethylamino)-ethyl)-propanamide] | 5 | 5 | 2.5 | 5 |  |  |  |  |  |  |  |  |  |  | EC50 (human red blood cells; [13]): 185 µg/mL |
| Cc1cc(C)cc(CC(CN)(Cc2cc(C)cc(C)c2)C(=O)N2CCN(CCN(C)C)CC2)c1 [Compound 35, 3-amino-1-(4-(2-(dimethylamino)ethyl)piperazin-1-yl)-2,2-bis(3,5-dimethylbenzyl)propan-1-one] | 50 | 50 | 35 | 100 |  |  |  |  |  |  |  |  |  |  |  |
